Source: PMC10530362, “Light-Sensitive Open Channel Block of Ionotropic Glutamate Receptors by Quaternary Ammonium Azobenzene Derivatives” (International Journal of Molecular Sciences, 2023)

Legend:
[1] = test system: T1, calcium-permeable AMPA receptors (native, giant cholinergic interneurons of the striatum); assay: whole-cell patch clamp, kainate-evoked current; assay type: cell-based, Rattus norvegicus; conditions: dark (trans), -70 mV, 100 µM kainate, pH 7.4, 22-24 °C; open channel pore block plus minor voltage-independent site; unit inferred, µM from context
T1 construct: gene Gria1; native GluA2(R)-lacking receptors in isolated rat striatal giant interneurons

[2] = test system: T2, NMDA receptors (native, hippocampal CA1 pyramidal neurons); assay: whole-cell patch clamp, NMDA-evoked steady-state current; assay type: cell-based, Rattus norvegicus; conditions: dark (trans), -70 mV, 100 µM NMDA + 10 µM glycine, pH 7.4, 22-24 °C; voltage-dependent foot-in-the-door pore block; unit inferred, µM from context
T2 construct: gene Grin1; native heteromeric receptor in isolated rat CA1 pyramidal neurons

Row | SMILES | IC50 [1] | IC50 [2]
1 | CC[N+](CC)(CC)CC(=O)Nc1ccc(N=Nc2ccc(NC(=O)C[N+](CC)(CC)CC)cc2)cc1 [QAQ] | 17 ± 2 µM | 18.6 ± 1 µM
2 | C=CC(=O)Nc1ccc(/N=N/c2ccc(NC(=O)C[N+](CC)(CC)CC)cc2)cc1 [AAQ] | 28.5 ± 1.1 µM | 19 ± 1.4 µM
